Measurements as given in patent publication US20230357354A1, “CD38-BINDING CD31 PEPTIDES AND USES THEREOF” (ENCEFA, priority 2020, published 2023).
Where two headings read alike, the source gives them in different places. Bridge positions count the residues as written; N and C are the ends. Ends that are not written are not given here. Peptide text beside a SMILES is read from it.

Columns and labels:
6-OHDA mouse model = assay: 6-OHDA mouse model, number of DA (TH+) neurons in the substantia nigra pars compacta; assay type: in vivo, mice; details: 15 mg/kg iv one day before 6-OHDA icv injection
Protocol: Animals were treated in accordance with the Guide for the Care and Use of Laboratory Animals (National Research Council, 1996), with the European Directive 2010/63/EU, and the guidelines of the local institutional animal care and use committee. For all studies, 8 to 10 weeks-old male C57B1/6 mice (Janvier, France) were used. They were maintained on a 12:12 hours light/dark cycle with lights on at 8 a.m. The room temperature was kept at 20° C., with free access to standard diet and tap water.
Two in vivo mouse models were used: the 6-OHDA mouse model and the MPTP mouse model. For the 6-OHDA mouse model, the intoxication protocol was based on the unilateral stereotaxic intrastriatal injection of 6-OHDA in the right striatum. Intracerebral or intravenous injections of treatments were made either the day before the surgical stereotaxic procedure, concomitantly with 6-OHDA during the surgical stereotaxic procedure, or two days after 6-OHDA injection. Animals were sacrificed 8 days after the surgical stereotaxic procedure.
For unilateral 6-OHDA mouse model, animals were anesthetized using Chloral hydrate (400 mg/kg, i.p.) and placed into a stereotactic frame adapted to mice. The injection was performed using a Hamilton syringe at the following coordinates: AP: + […] (corresponding to the atlas of Franklin and Paxinos, 1997). […]

[1] = tested on: dopaminergic (TH^+) neurons in midbrain cultures; assay: MPP+ intoxication model: DA (TH+) cell survival in midbrain cultures; assay type: cell-based, Wistar rat; details: MPP^+ in vitro model; antibodies 1 µg/mL, genistein 10 nM, vacuolin-1 10 µM, endosidin2 40 µM
Protocol: Animals were treated in accordance with the Guide for the Care and Use of Laboratory Animals (National Research Council, 1996), European Directive 86/609, and the guidelines of the local institutional animal care and use committee. Cultures were prepared from the ventral mesencephalon of gestational age 15.5 Wistar rat embryos (Janvier Breeding Center, Le Genest St Isle, France). Dissociated cells in suspension obtained by mechanical trituration of midbrain tissue pieces were seeded at a density of 1.2-1.5×10^5 cells/cm^2 onto tissue culture supports precoated with 1 mg/mL polyethylenimine diluted in borate buffer pH 8.3 as described (Michel et al., 1997. J Neurochem. 69(4):1499-507). The cultures were then maintained in N5 medium supplemented with 5 mM glucose, 5 % horse serum, and 0.5 % fetal calf serum, except for the first 3 DIV, when the concentration of fetal calf serum was 2.5% to favor initial maturation of the cultures (Guerreiro et al., 2008. Mol Pharmacol. 74(4):980-9). They were fed daily by replacing 70% of the medium. Routinely, mesencephalic cultures were established on Nunc 24-well culture plates (Thermofischer Scientific, Rochester, NY). Note that these cultures contain tyrosine hydroxylase (TH)^+ neurons that were exclusively dopaminergic (Traver et al., 2006. Mol Pharmacol. 70(1):30-40). TH^+ neurons represented approximately 1-2% of the total number of neuronal cells present in these cultures. The evaluation of the survival of DA neurons was performed by counting cells immunopositive for TH as described (Toulorge et al., 2011. Faseb J. 25(8):2563-73).
Treatments with MPP^+ were performed in cultures where the spontaneous death process was prevented by long-term exposure to depolarizing concentrations of K^+ (30 mM), in the presence of the glutamate receptor antagonist MK801 (5 µM) to prevent unwanted excitotoxic insults as described previously (Douhou et al., 2001. J Neurochem. 78(1):163-74). Treatments with MPP^+ and potential neuroprotective molecules were carried out between 5 and 7 DIV.
The cultures were fixed for 12 min using 4 % formaldehyde in Dulbecco’s phosphate-buffered saline (PBS), then washed twice with PBS before an incubation step at 4° C. for 24 hours with the following antibodies. A monoclonal anti-TH antibody diluted 1/5000 (ImmunoStar, Inc., Hudson, WI) was used to assess the survival of DA neurons. Antibody was diluted in PBS containing 0.2 % Triton X-100. Detection of the primary antibodies was performed with an Alexa Fluor-488 conjugate of an anti-mouse IgG antibody.
For this purpose, spontaneously occurring DA cell death was prevented by a treatment combining depolarizing concentrations of K^+ (30 mM) and MK801 (5 µM), a glutamate receptor antagonist used to prevent unwanted excitotoxic insult. The cultures were then exposed to 3 µM MPP^+ between 5 and 7 days in vitro (DIV) to achieve a loss of approximately 50% of DA neurons.

human Daudi cells [2] = assay type: cell-based
human Daudi cells [3] = assay type: cell-based; details: for glucose uptake (2-NBDG fluorescence): glucose-deprived cells, 1 hour treatment (1 µM per figure legends; 10 µg/mL per method), 2-NBDG 500 µM 30 minutes; for effect of the C-terminal deletion or alanine substitution (relative to the parent peptide) on glucose uptake: parent SEQ ID NO: 6 (deletions) or SEQ ID NO: 8 (alanine scanning), 2-NBDG fluorescence
Protocol: Human Daudi cells cultured in 75 cm^2 flask were centrifuged ( 300 g, 3 minutes), resuspended in warmed PBS supplemented with 10 % goat serum and seeded in 96-well microplate ( 100 µL, 2 × 10^6 cells/mL) in order to deprive cells from glucose. Cells were treated with test treatments (10 µg/mL) for 1 hour (37° C.). Cells were then incubated with 500 µM of the fluorescent and non-metabolizable glucose analog 2-NBDG ((2R,3R,4S,5R)-3,4,5,6-tetrahydroxy-2-[(7-nitro-2,1,3-benzoxadiazol-4-yl)amino]hexanal; Thermo Fischer) for 30 minutes at 37° C., and washed 4 times with PBS containing 10 % of goat serum. Images were acquired using a Zeiss microscope (20 X) and the relative fluorescence intensity of 30 cells was determined using Fiji.
To determine the effect of test compounds on glucose uptake, we developed a cellular model based on the use of human Daudi cells, a cell line known to strongly express CD38.
Human Daudi cells were plated in culture medium deprived of glucose and exposed to test treatments (peptides of Table 6) for 1 hour and then incubated with the non-metabolizable, fluorescent glucose 2-NBDG. After 30 minutes of incubation, cells were washed and imaged using a microscope. Fluorescence levels were determined using Fiji.

DSS mouse model = assay: DSS-induced colitis mouse model, colon length; assay type: in vivo, mice
Protocol: Experimental colitis was induced in mice by giving drinking water ad libitum containing 3 % (w/v) DSS for 5 days, while control mice received tap water only. Test compounds were intravenously administered (15 mg/kg) when DSS treatment began. Mice were sacrificed 9 days after the beginning of DSS treatment.
Administration of DSS causes human ulcerative colitis-like pathologies due to its toxicity to colonic epithelial cells, which results in compromised mucosal barrier function. Clinical observations similar to human pathologies, such as weight loss, diarrhea and occult blood in stool, are commonly observed in the DSS model. Moreover, diminution of the colon’s length is characteristic of this model.
Experimental colitis was induced in mice by giving drinking water ad libitum containing 3% (w/v) DSS for 5 days, while control mice received tap water only. Test compounds (SEQ ID NO: 6 and SEQ ID NO: 10) were subcutaneously administered everyday (300 µg/kg) starting when DSS treatment began. Mice were sacrificed 9 days after the beginning of DSS treatment.

For Daratumumab, the “neuroprotective effect on DA neurons” value (6-OHDA mouse model) was “failed to demonstrate neuroprotective activity”.
With `COc1cc(/C=N/NC(=O)c2cccc(F)c2)cc(I)c1O` [endosidin2] the “effect on the neuroprotective effect of agonistic anti-CD38 antibody clone HB7 (1 µg/mL)” value [1] was “antagonized” and the “effect on the neuroprotective effect of sCD31 (1 µg/mL)” value (from here on “effect … of sCD31 (1 µg/mL)”) [1] was “antagonized”.
In the case of `Ic1cccc(/C=N/Nc2nc(N3CCOCC3)nc(N(c3ccccc3)c3ccccc3)n2)c1` [vacuolin-1], the “effect on the neuroprotective effect of agonistic anti-CD38 antibody clone HB7 (1 µg/mL)” value [1] is reported as “antagonized” and the “effect … of sCD31 (1 µg/mL)” value [1] is reported as “antagonized”.
With `O=c1c(-c2ccc(O)cc2)coc2cc(O)cc(O)c12` [genistein] the “effect on the neuroprotective effect of agonistic anti-CD38 antibody clone HB7 (1 µg/mL)” value [1] was “antagonized” and the “effect … of sCD31 (1 µg/mL)” value [1] was “antagonized”.
With “human sCD31: soluble form of human CD31, amino acid residues 35 to 493 of SEQ ID NO: 1” the EC50 (human Daudi cells [2]; dose response, 2-NBDG fluorescence, read-out: EC50 on glucose uptake) was ~5 nM and the “glucose uptake (2-NBDG fluorescence)” value (human Daudi cells [3]) was “increased glucose uptake to similar levels to that observed in the presence of insulin”.
In the case of NFVILEFA [SEQ ID NO: 300], the “effect of the C-terminal deletion or alanine substitution (relative to the parent peptide) on glucose uptake” value (human Daudi cells [3]) is reported as “had no effect on glucose uptake”.
For NFAILEFP [SEQ ID NO: 295], the “effect of the C-terminal deletion or alanine substitution (relative to the parent peptide) on glucose uptake” value (human Daudi cells [3]) was “had no effect on glucose uptake”.
NFVITEFP [SEQ ID NO: 316] was tested, and the “glucose uptake (2-NBDG fluorescence)” value (human Daudi cells [3]) was “impact the glucose uptake-increasing activity of the peptide”.
In the case of NWVILEFP [SEQ ID NO: 306], the “glucose uptake (2-NBDG fluorescence)” value (human Daudi cells [3]) is reported as “still increase glucose uptake”.
For NSMLIEFT [SEQ ID NO: 320], the “glucose uptake (2-NBDG fluorescence)” value (human Daudi cells [3]) was “still able to increase glucose uptake”.
For FVILEFP [SEQ ID NO: 292], the “glucose uptake (2-NBDG fluorescence)” value (human Daudi cells [3]) was “failed to reproduce the effect of sCD31”.
In the case of NFVIAEFP [SEQ ID NO: 297], the “glucose uptake (2-NBDG fluorescence)” value (human Daudi cells [3]) is reported as “slightly decreased the activity of the peptide, although it remained overall active”.
NSRDQNFVILEFPVE [SEQ ID NO: 6] was tested, and the EC50 (human Daudi cells [2]; 1 h) was ~13 nM, the colon length (DSS mouse model; 300 µg/kg s.c. daily from start of DSS, 3% DSS 5 days, sacrifice day 9) was “statistically significant improvement in colon length” and the “potency on colon length compared with SEQ ID NO: 10” value (DSS mouse model; same dosing regimen, 300 µg/kg s.c. daily) was “less potent than SEQ ID NO: 10”.
Compound `CC[C@H](C)[C@@H]1NC(=O)[C@H](C(C)C)NC(=O)[C@H](Cc2ccccc2)NC(=O)[C@H](CC(N)=O)NC(=O)[C@H](CCC(N)=O)NC(=O)[C@H](CC(=O)O)NC(=O)[C@H](CCCNC(=N)N)NC(=O)[C@@H](N)CSSC[C@@H](C(=O)O)NC(=O)[C@H](CCC(N)=O)NC(=O)[C@H](CCC(=O)O)NC(=O)[C@H](CCC(=O)O)NC(=O)[C@H](C(C)C)NC(=O)[C@@H]2CCCN2C(=O)[C@H](Cc2ccccc2)NC(=O)[C@H](CCC(=O)O)NC(=O)[C@H](CC(C)C)NC1=O` [SEQ ID NO: 9] (H-CRDQNFVILEFPVEEQC-OH; disulfide 1-17 (inferred); N-terminus and C-terminus assumed) has an EC50 (human Daudi cells [2]; 1 h) of ~0.1 nM.
In the case of NFVILEAP [SEQ ID NO: 299], the “effect of the C-terminal deletion or alanine substitution (relative to the parent peptide) on glucose uptake” value (human Daudi cells [3]) is reported as “had no effect on glucose uptake”.
